Test results published in ChEMBL document CHEMBL4334438, “Discovery of novel glycogen synthase kinase-3α inhibitors: Structure-based virtual screening, preliminary SAR and biological evaluation for treatment of acute myeloid leukemia” (Eur J Med Chem, 2019).
Calls of active or inactive are those of the source. The rule behind the calls is not given here.

Experiments:
[1] = target: T1, Glycogen synthase kinase-3 beta (Homo sapiens, UniProt P49841); assay: Inhibition of human GSK-3beta by mobility shift micro-fluidic assay
T1 sequence (P49841 whole entry): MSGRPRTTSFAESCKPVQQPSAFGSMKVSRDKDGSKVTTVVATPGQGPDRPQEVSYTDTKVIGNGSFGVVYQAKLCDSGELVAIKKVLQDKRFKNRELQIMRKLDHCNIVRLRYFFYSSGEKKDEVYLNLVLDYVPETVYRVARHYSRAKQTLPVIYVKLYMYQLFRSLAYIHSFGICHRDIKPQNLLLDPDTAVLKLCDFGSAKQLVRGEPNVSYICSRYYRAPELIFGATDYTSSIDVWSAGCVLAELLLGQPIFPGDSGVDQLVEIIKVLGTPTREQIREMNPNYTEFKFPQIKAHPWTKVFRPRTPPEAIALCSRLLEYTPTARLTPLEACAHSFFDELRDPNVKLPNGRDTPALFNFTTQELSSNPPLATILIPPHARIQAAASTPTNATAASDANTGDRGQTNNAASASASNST

[2] = target: T2, Glycogen synthase kinase-3 alpha (Homo sapiens, UniProt P49840); assay: Inhibition of human GSK-3alpha using YRRAAVPPSPSLSRHSSPHQ(pS)EDEEE as substrate measured in presence of [gamma-33P]ATP by radiometric assay
T2 sequence (P49840 whole entry): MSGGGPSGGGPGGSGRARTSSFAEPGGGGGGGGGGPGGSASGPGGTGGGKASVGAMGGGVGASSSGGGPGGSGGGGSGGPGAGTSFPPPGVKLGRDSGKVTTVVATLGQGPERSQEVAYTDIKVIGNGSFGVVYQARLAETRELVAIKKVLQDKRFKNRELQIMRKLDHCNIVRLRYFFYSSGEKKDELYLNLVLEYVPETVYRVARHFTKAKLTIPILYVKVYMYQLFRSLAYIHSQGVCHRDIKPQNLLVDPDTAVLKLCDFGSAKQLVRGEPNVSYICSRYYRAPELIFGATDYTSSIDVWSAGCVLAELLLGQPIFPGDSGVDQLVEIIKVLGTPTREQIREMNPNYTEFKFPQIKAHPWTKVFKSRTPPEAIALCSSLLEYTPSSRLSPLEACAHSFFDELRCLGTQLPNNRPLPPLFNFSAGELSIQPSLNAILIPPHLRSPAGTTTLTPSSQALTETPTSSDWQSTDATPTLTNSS

[3] = target: T1, Glycogen synthase kinase-3 beta; assay: Inhibition of human GSK-3beta using YRRAAVPPSPSLSRHSSPHQ(pS)EDEEE as substrate measured in presence of [gamma-33P]ATP by radiometric assay
HL-60 [4] = assay: Antiproliferative activity against human HL60 cells assessed as reduction in viability at 1 to 30 uM after 3 days by SRB assay; assay type: functional, cell-based
NB-4 [5] = assay: Antiproliferative activity against human NB4 cells assessed as reduction in viability at 1 to 30 uM after 3 days by SRB assay; assay type: functional, cell-based
HL-60 [6] = assay: Induction of monocytic differentiation in human HL60 cells assessed as increase in CD11b-APC-Cy7 positive cells at 30 uM after 6 days by flow cytometry analysis; assay type: functional, cell-based
NB-4 [7] = assay: Induction of monocytic differentiation in human NB4 cells assessed as increase in CD11b-APC-Cy7 positive cells at 30 uM after 6 days by flow cytometry analysis; assay type: functional, cell-based
HL-60 [8] = assay: Induction of monocytic differentiation in human HL60 monocytic assessed as increase in CD11c-APC positive cells at 30 uM after 6 days by flow cytometry analysis; assay type: functional, cell-based
NB-4 [9] = assay: Induction of monocytic differentiation in human NB4 cells assessed as increase in CD11c-APC positive cells at 30 uM after 6 days by flow cytometry analysis; assay type: functional, cell-based
HL-60 [10] = assay: Induction of monocytic differentiation in human HL60 cells assessed as increase in CD14-FITC positive cells at 30 uM after 6 days by flow cytometry analysis; assay type: functional, cell-based
NB-4 [11] = assay: Induction of monocytic differentiation in human NB4 cells assessed as increase in CD14 positive cells at 30 uM after 6 days by FITC staining based flow cytometry analysis; assay type: functional, cell-based
[12] = Activation of wnt/beta-catenin signalling pathway in human HL60 cells assessed as stabilization of beta-catenin at 30 uM after 24 hrs by Western blot analysis; assay type: cell-based
[13] = Activation of wnt/beta-catenin signalling pathway in human NB4 cells assessed as stabilization of beta-catenin at 30 uM after 24 hrs by Western blot analysis; assay type: cell-based
[14] = test system: Glycogen synthase kinase-3 alpha (Homo sapiens), P49840 [UNDEFINED MUTATION]; assay: Inhibition of human GSK-3alpha S449A mutant (2 to end residues) at 10 uM using phospho GS2 peptide as substrate after 40 mins in presence of [gamma-33ATP] by scintillation counting method relative to control
Glycogen synthase kinase-3 alpha (Homo sapiens), P49840 [UNDEFINED MUTATION], sequence (P49840 whole entry, looked up, stated change not applied): as the sequence (P49840 whole entry) above

[15] = target: T2, Glycogen synthase kinase-3 alpha; assay: Inhibition of human GSK-3alpha S449A mutant (2 to end residues) using phospho GS2 peptide as substrate after 40 mins in presence of [gamma-33ATP] by scintillation counting method
GSK-3beta (H350L mutant) = GSK-3beta (H350L mutant) (Homo sapiens, UniProt P49841, H350L); assay: Inhibition of human GSK-3beta H350L mutant (2 to end residues) at 10 uM using phospho GS2 peptide as substrate after 40 mins by [gamma-33ATP] radiometric assay relative to control; settings: human GSK-3beta H350L mutant enzyme (residues 2 to end), probe phospho GS2 peptide
GSK-3beta (H350L mutant), sequence (P49841 whole entry, looked up, stated change not applied, the tested form may be a part): as the sequence (P49841 whole entry) above

[16] = target: Glycogen synthase kinase-3 beta (Homo sapiens, UniProt P49841, H350L); assay: Inhibition of human GSK-3beta H350L mutant (2 to end residues) at 10 uM using phospho GS2 peptide as substrate after 40 mins by [gamma-33ATP] radiometric assay
Glycogen synthase kinase-3 beta (Homo sapiens, UniProt P49841, H350L), sequence (P49841 whole entry, looked up, stated change not applied): as the sequence (P49841 whole entry) above

HL-60 [17] = assay: Induction of granulocytic differentiation in human HL60 cells assessed as increase in CD11b-APC-Cy7 positive cells at 10 to 30 uM after 6 days by flow cytometry analysis; assay type: functional, cell-based
HL-60 [18] = assay: Inhibition of colony formation in human HL60 cells at 30 uM preincubated for 72 hrs followed by compound washout and measured after 7 to 10 days; assay type: functional, cell-based
NB-4 [19] = assay: Inhibition of colony formation in human NB4 cells at 30 uM preincubated for 72 hrs followed by compound washout and measured after 7 to 10 days; assay type: functional, cell-based
NB-4 [20] = assay: Induction of granulocytic differentiation in human NB4 cells assessed as increase in CD11b-APC-Cy7 positive cells at 10 to 30 uM after 6 days by flow cytometry analysis; assay type: functional, cell-based
HL-60 [21] = assay: Induction of granulocytic differentiation in human HL60 granulocytic assessed as increase in CD11c-APC positive cells at 10 to 30 uM after 6 days by flow cytometry analysis; assay type: functional, cell-based
NB-4 [22] = assay: Induction of granulocytic differentiation in human NB4 cells assessed as increase in CD11c-APC positive cells at 10 to 30 uM after 6 days by flow cytometry analysis; assay type: functional, cell-based
HL-60 [23] = assay: Induction of granulocytic differentiation in human HL60 cells assessed as increase in CD14-FITC positive cells at 10 to 30 uM after 6 days by flow cytometry analysis; assay type: functional, cell-based
NB-4 [24] = assay: Induction of granulocytic differentiation in human NB4 cells assessed as increase in CD14 positive cells at 10 to 30 uM after 6 days by FITC staining based flow cytometry analysis; assay type: functional, cell-based
Homo sapiens = species on record: Homo sapiens; assay: Selectivity index, ratio of IC50 for inhibition of human GSK-3beta H350L mutant (2 to end residues) to IC50 for inhibition of human GSK-3alpha S449A mutant (2 to end residues)

SMILES	inhibition [14] [%]	IC50 [15] [µM]	inhibition at 40 min, 10 µM (GSK-3beta (H350L mutant)) [%]	IC50 [16] [µM]	also measured
CC[C@@]1(c2ccccc2)C2=C(CC(C)(C)CC2=O)Nc2n[nH]cc21					IC50 [1]: 0.515 µM
c1ccc(-c2noc(CSc3nnc(-c4ccncc4)o3)n2)cc1					IC50 [2]: 0.451 µM; IC50 [3]: 0.521 µM; Activity (HL-60 [4]): Active; Activity (NB-4 [5]): Active; Activity (HL-60 [6]): Active; Activity (NB-4 [7]): Active; Activity (HL-60 [8]): Active; Activity (NB-4 [9]): Active; Activity (HL-60 [10]): Active; Activity (NB-4 [11]): Active; Activity [12]: Active; Activity [13]: Active
CN1C(=N)NC(=O)/C1=C\c1ccc(-c2ccc(F)cc2)o1	81	1.34	78	1.89	
CC1=C(/C=C/C(C)=C/C=C/C(C)=C/C(=O)O)C(C)(C)CCC1					Activity (HL-60 [17]): Active; Activity (HL-60 [4]): Active; Activity (NB-4 [5]): Active; inhibition (HL-60 [18]): Active; inhibition (NB-4 [19]): Active; Activity (NB-4 [20]): Active; Activity (HL-60 [21]): Active; Activity (NB-4 [22]): Active; Activity (HL-60 [23]): Active; Activity (NB-4 [24]): Active
N=C1NC(=O)/C(=C\c2ccc(-c3cccc(C(=O)O)c3)o2)S1	97	0.207	93	0.308	
NC1=NC(=O)/C(=C\c2ccc(-c3ccccc3[N+](=O)[O-])o2)S1	91	2.8	82	2.5	
O=C1NC(=S)N/C1=C/c1ccc(-c2ccc([N+](=O)[O-])cc2)o1	88	0.412	72	0.584	
N=C1NC(=O)/C(=C\c2ccc(-c3ccccc3Cl)o2)S1	95	0.242	95	0.565	
O=C1NC(=S)N/C1=C/c1ccc(-c2ccc(Cl)c(Cl)c2)o1	65	0.37	59	0.678	
Cc1ccc(-c2ccc(/C=C3/NC(=S)NC3=O)o2)cc1Cl	76	0.904	72	1.29	
N=C1NC(=O)/C(=C\c2ccc(-c3ccc(Cl)cc3Cl)o2)S1	82	1.88	93	1.2	
N=C1NC(=O)/C(=C\c2ccc(-c3ccc(Cl)c(Cl)c3)o2)S1	80 to 81	0.3	75	0.576	Ratio IC50 (Homo sapiens): 1.9
O=C1NC(=S)N/C1=C/c1ccc(-c2ccc(C(=O)O)cc2)o1	97	0.309	91	0.743	
Cc1ccc(-c2ccc(/C=C3/NC(=S)NC3=O)o2)c(Br)c1	65 to 90	0.44	62	0.862	Ratio IC50 (Homo sapiens): 1.95
Cc1ccc(-c2ccc(/C=C3/SC(=N)NC3=O)o2)c([N+](=O)[O-])c1	85	0.162	89	0.32	
CCCOC(=O)c1cc(-c2ccc(/C=C3/NC(=S)NC3=O)o2)ccc1Cl	88	0.159	81	0.405	
